One may read the inhibition as the change of the read-out against control, counted positive when it falls.

The values below come from patent publication US9446043B2, “Pharmaceutical combinations” (Novartis AG, priority 2012, dated 2016).

The subject of one experiment is pMARCKS. In words: Protein immunoblot following drug treatment of uveal melanoma cell lines. It counts as cell-based, human. To be noted: 92.1 and OMM-1 cells, 0.5 μM per agent, 2-48 hours. How it is done:
Uveal melanoma cells were incubated with 0.5 μM AEB071, 0.5 μM COMPOUND B, both compounds or DMSO alone. Cells were lysed after 2, 4, 8, 24 or 48 hours of treatment in M-PER mammalian protein extraction buffer containing PhosStop Phosphatase inhibitor cocktail tablet (Roche Diagnostics #04 906 837 001) and Complete Protease Inhibitor cocktail tablet (Roche Diagnostics #11 836 145 001). Proteins were separated on a 4-12% Bis-Tris NuPAGE SDS gel (Invitrogen #WG1403Bx10) and subsequently transferred to a nitrocellulose membrane using a dry blotting system (Invitrogen iBLOT). Proteins were detected with 1:1000 dilutions of anti-p44/42 MAPK (Cell Signaling Technologies #4377), anti-pMARCKS (Cell Signaling Technologies #2741), anti-pMEK1/2 (Cell Signaling Technologies #9121) and anti-Beta Actin (Ambion#AM4202). Beta actin was detected using the appropriate secondary antibody and an infrared dye detection system (Odyssey IRDye, LI-COR) according to the manufacturer's protocol. All other proteins were detected using an anti-rabbit-HRP secondary antibody and developed with SuperSignal West Dura Chemiluminescent Substrate (Thermo Scientific #34076) on a Syngene imaging system. The biochemical effect of these agents was assessed following treatment with 0.5 μM AEBO071, 0.5 μM COMPOUND B or 0.5 μM of each agent together in the uveal melanoma cell lines 92.1 and OMM-1. […]
In general terms: In western blotting, separated proteins are transferred to a membrane and probed.

The test system of experiment [1] is 92.1 uveal melanoma cell line (GNAQ mutation). Put plainly: Proliferation measurement by xCELLigence. The settings on record: 92.1 cells, 0.5 μM per compound, 6 days. Type of experiment: cell-based, human. How it is done: (§1) 92.1 and OMM-1 uveal melanoma cell lines were cultured in Roswell Park Memorial Institute medium (RPMI 1640) (American Type Culture Collection (ATCC #30-2001)) supplemented with 10% fetal bovine serum and incubated at 37° C./5% carbon dioxide.
(§2) Compound stocks of 3-(1H-indol-3-yl)-4-[2-(4-methyl-piperazin-1-yl)-quinazolin-4-yl]-1H-pyrrole-2,5-dione, hereafter AEB071, and of 6-(4-bromo-2-fluorophenylamino)-7-fluoro-3-methyl-3H-benzoimidazole-5-carboxylic acid (2-hydroxyethoxy)-amide, hereafter COMPOUND B, were prepared in dimethylsulfoxide (DMSO) at a final concentration of 10 mM.
(§3) Growth of uveal cells was continuously monitored with the xCELLigence real-time cell analyzer. E-plates (Roche #05 232 368 001) were incubated with cells added at a final concentration of 3000 cells per 100 μl per well. Impedance was measured every 2 hours for 24 hours. […] Impedance was measured every 2 hours over 7 days. Data was normalized to day 0 prior to compound addition.
(§4) The effect of 3-(1H-indol-3-yl)-4-[2-(4-methyl-piperazin-1-yl)-quinazolin-4-yl]-1H-pyrrole-2,5-dione (COMPOUND A) and 6-(4-bromo-2-fluorophenylamino)-7-fluoro-3-methyl-3H-benzoimidazole-5-carboxylic acid (2-hydroxyethoxy)-amide (COMPOUND B) on uveal melanoma proliferation in vitro is shown (FIG. 1).

The test system of experiment [2] is OMM1 uveal melanoma cell line (GNA11 mutation). In words: Proliferation measurement by xCELLigence. Type of experiment: cell-based. To be noted: OMM1 cells, 0.5 μM per compound, 6 days. How it is done:
as §1, §2, §3, §4

For experiment [3], the system named is 92.1 uveal melanoma cell line. In words: Cell proliferation in combination dose matrix (Cell Titer Glo, Chalice). The settings on record: 92.1 cells; for anti-proliferative response in dose matrix: 0.039 μM to 10 μM; for inhibition at 0.16 µM: Homo sapiens, 0.16 μM of each agent, 144 hours, Cell Titer Glo, read-out: growth inhibition (FIG. 2, top panel). Type of experiment: cell-based, human. How it is done: Cells were seeded at a density of 3000 cells per 100 μl of medium per well in 96-well plates (Costar #3904) and incubated overnight prior to compound addition. Compound stock was freshly prepared in the appropriate culture medium and manually added to the plates by electronic multichannel pipette in three replicates. Cells were treated with compound alone or with a combination of AEB071 and COMPOUND B diluted 1:2 for a ten point dilution ranging from 0.039 μM to 10 μM. The viability of cells was assessed at the time of compound addition and after 144 hours of treatment by quantification of cellular ATP levels via Cell Titer Glo (Promega #G7571) according to the manufacturer's protocol. Plates were read on a luminescence plate reader (Victor X4, Perkin Elmer). Fractional inhibition of growth was calculated using XLfit and normalized to no compound wells. For growth inhibition, day 0 values were subtracted before calculating inhibition. Data was analyzed by Chalice software
(http://chalice.zalicus.com/documentation/analyzer/index.jsp) to calculate growth inhibition, inhibition and HSA excess.
FIG. 2 provides a closer look at the patterns of synergy between the two agents in the 92.1 cell line. The dose matrix between the two agents is shown; the effect on cell growth relative to untreated cells is shown in the top panel, the excess inhibition (HSA) in the center panel and the growth inhibition relative to day zero normalization is shown in the bottom panel. Methods of calculations for growth inhibition, inhibition and HSA excess are known in the art.
Inhibition and excess inhibition values for all dose combinations can be seen in FIG. 2. The growth rate of the cells during the […] assay was taken into account for the calculation of growth inhibition percent shown in FIG. 2, bottom panel. 100% indicated stasis, meaning the cells had neither grown nor died during the course of the assay, values in excess of 100 indicate death, 200 being complete cell death, and values below 100 indication growth from the start of the assay to the day 3 end point.
Background: Cellular ATP, detected with luciferase, serves as a proxy for viable cell number.

For experiment [4], the system named is 92.1 human uveal melanoma xenograft (GNAQ mutation). In words: In vivo activity in the 92.1 human uveal melanoma nude mouse xenograft model. How it is done:
NVP-AEB071 (also referred to as AEB071) (acetate salt, 87.96% free base) powder was added to 20% polyethyleneglycol 400 (PEG400): 4.5% 0.1M HCl: 75.5% of 5% dextrose in water (D5W), designated as Vehicle 1, and stirred to obtain a clear red solution. NVP-COMPOUND B (also referred to as COMPOUND B) was formulated as a homogenous suspension in 1% carboxymethyl cellulose: 0.5% Tween® 80 in deionized water. A fresh suspension was prepared once per week for each compound and stored at 4° C.
The animals were fed ad libitum water (reverse osmosis, 1 ppm Cl) and NIH 31 Modified and Irradiated Lab Diet® consisting of 18.0% crude protein, 5.0% crude fat, and 5.0% crude fiber. The mice were housed on irradiated Enrich-O'Cobs™ Laboratory Animal Bedding in static microisolators on a 12-hour light cycle at 20-22° C. (68-72° F.) and 40-60% humidity. DRS-NC specifically complies with the recommendations of the Guide for Care and Use of Laboratory Animals with respect to restraint, husbandry, surgical procedures, feed and fluid regulation, and veterinary care. The animal program at DRS-NC is accredited by the Association for Assessment and Accreditation of Laboratory Animal Care (AAALAC) International, which assures compliance with accepted standards for the care and use of laboratory animals.
The 92.1 uveal melanoma cells were harvested during exponential growth, and re-suspended in cold PBS (phosphate buffered saline) with 50% Matrigel™ (BD Biosciences). Each mouse was inoculated subcutaneously in the right flank with 5×10^6 cells (0.2 mL of cell suspension). Tumors were calipered in two dimensions to monitor growth as their mean volume approached the desired 100-150 mm^3 range. Tumor size, in mm^3, was calculated from: Tumor Volume=(w^2×l)/2 where w=width and l=length, in mm, of the tumor. Tumor weight could be estimated with the assumption that 1 mg was equivalent to 1 mm^3 of tumor volume. Twelve days after tumor cell implantation, on Day 1 (D1) of the study, animals with individual tumor volumes of 108-256 mm^3 were sorted into six groups (n=10/group) with group mean tumor volumes of 153-159 mm^3.
AEB071 was administered at 91 mg/kg three times daily (TID) dosing for 21 days. Efficacy was determined from tumor growth inhibition on day 17, the last day with all mice on the study. The activity was calculated at tumor/control (T/C), the percent mean tumor volume change from day 1 to day 17 in drug treated mice (ΔT) versus vehicle treated mice, or as a T/T0, the percent reduction in the group mean tumor volume from day 1. […] Addition of COMPOUND B dosed twice daily at 3.5 mg/kg to the AEB071 regimen yielded a −22% T−T0 (p<0.001 median activity, but not significant compared to AEB071 alone). COMPOUND B had no activity in its own right with a T/C of 84%.
Mice were dosed for 21 days, then treatment ceased and tumor outgrowth was monitored. […] Tumor growth delay was not calculated because two or more tumors per group became static after an initial growth period, but the trend of tumor outgrowth rate indicated the AEB071 plus COMPOUND B combination tumors grew out slower than AEB071 single agent, COMPOUND B single agent treated tumors were not monitored due to lack of efficacy.
The effectiveness of the combination increased in a dose dependent manner, with increasing AEB071 dose in combination with COMPOUND B yielding a greater magnitude of response. AEB071 was administered at […] and 22.74 mg/kg, (equivalent to 80, 40 and 20 mg/kg free base) with three times daily dosing (TID) for 21 days in combination with COMPOUND B at 3.5 mg/kg with twice daily dosing in the 92.1 human uveal melanoma nude mouse xenograft model. Efficacy was determined from tumor growth inhibition on day 22. The activity was calculated at tumor/control (T/C), the percent mean tumor volume change from day 1 to day 22 in drug treated mice (ΔT) versus vehicle treated mice, or as a T/T0, the percent reduction in the group mean tumor volume from day 1. […]
A general note: A xenograft is tissue or cells of one species grown in another, often human tumour cells in immunodeficient mice.

A further experiment relates to pMEK1/2. In words: Protein immunoblot following drug treatment of uveal melanoma cell lines. Type of experiment: cell-based, human. The settings on record: 92.1 and OMM-1 cells, 0.5 μM per agent, over time, clearly observed at 48 hours. How it is done: (§5) Uveal melanoma cells were incubated with 0.5 μM AEB071, 0.5 μM COMPOUND B, both compounds or DMSO alone. Cells were lysed after 2, 4, 8, 24 or 48 hours of treatment in M-PER mammalian protein extraction buffer containing PhosStop Phosphatase inhibitor cocktail tablet (Roche Diagnostics #04 906 837 001) and Complete Protease Inhibitor cocktail tablet (Roche Diagnostics #11 836 145 001). Proteins were separated on a 4-12% Bis-Tris NuPAGE SDS gel (Invitrogen #WG1403Bx10) and subsequently transferred to a nitrocellulose membrane using a dry blotting system (Invitrogen iBLOT). Proteins were detected with 1:1000 dilutions of anti-p44/42 MAPK (Cell Signaling Technologies #4377), anti-pMARCKS (Cell Signaling Technologies #2741), anti-pMEK1/2 (Cell Signaling Technologies #9121) and anti-Beta Actin (Ambion#AM4202). Beta actin was detected using the appropriate secondary antibody and an infrared dye detection system (Odyssey IRDye, LI-COR) according to the manufacturer's protocol. All other proteins were detected using an anti-rabbit-HRP secondary antibody and developed with SuperSignal West Dura Chemiluminescent Substrate (Thermo Scientific #34076) on a Syngene imaging system.
(§6) The biochemical effect of these agents was assessed following treatment with 0.5 μM AEBO071, 0.5 μM COMPOUND B or 0.5 μM of each agent together in the uveal melanoma cell lines 92.1 and OMM-1. The level of pMARCKS was attenuated (FIG. 3). […] The combination of AEB071 and COMPOUND B suppressed pathway components to a greater magnitude and duration compared to either single agent.

In another experiment the test system is pERK1/2. The description is as above. It counts as cell-based, human. To be noted: 92.1 and OMM-1 cells. How it is done:
as §5, §6

For `CN1CCN(c2nc(C3=C(c4c[nH]c5ccccc45)C(=O)NC3=O)c3ccccc3n2)CC1` [AEB071, 3-(1H-indol-3-yl)-4-[2-(4-methyl-piperazin-1-yl)-quinazolin-4-yl]-1H-pyrrole-2,5-dione], in the experiment on pMARCKS, the “level of pMARCKS” value is listed as “attenuated”. Also, the “effect on growth of uveal melanoma cell line (xCELLigence)” value in experiment [1] and in experiment [2] was “delayed cell growth” throughout. Besides, the “anti-proliferative response in dose matrix” value in experiment [3] is “active”. For the same compound, the inhibition at 0.16 µM in experiment [3] was found to be 19%. The “mean tumor response during the dosing period” value in experiment [4] (21 days dosing (FIG. 5)) was “near complete mean tumor stasis”. The “T/C (tumor/control)” value in experiment [4] (AEB071 22.7 mg/kg (20 mg/kg free base) TID for 21 days, day 22, non-significant) was found to be 92%; in experiment [4] (AEB071 45.5 mg/kg (40 mg/kg free base) TID for 21 days, day 22, non-significant), 52%; in experiment [4] (AEB071 90.95 mg/kg (80 mg/kg free base) TID for 21 days, day 22, p<0.05) it was 18%; in experiment [4] (AEB071 (acetate salt) 91 mg/kg TID for 21 days, day 17, p<0.01) it was 3%. For the same compound, in experiment [4] (two weeks following the 21 day dosing period, followed >70 days (FIG. 5)), the “tumor progression after the dosing period” value is “progressed at the control pace”.
With `Cn1cnc2c(F)c(Nc3ccc(Br)cc3F)c(C(=O)NOCCO)cc21` [COMPOUND B, 6-(4-bromo-2-fluorophenylamino)-7-fluoro-3-methyl-3H-benzoimidazole-5-carboxylic acid (2-hydroxyethoxy)-amide], the “effect on growth of uveal melanoma cell line (xCELLigence)” value in experiment [1] and in experiment [2] was “modest effect” throughout. Besides, the “anti-proliferative response in dose matrix” value in experiment [3] is reported as “active”. The inhibition at 0.16 µM in experiment [3] turned out to be 57%. Besides, the “T/C (tumor/control)” value in experiment [4] (COMPOUND B 3.5 mg/kg twice daily, day 17) turned out to be 84%; in experiment [4] (COMPOUND B 3.5 mg/kg twice daily, day 22) it was 56%. The pMEK1/2 expression entry in the experiment on pMEK1/2 is listed as “induction of pMEK1/2 expression”. Also, in the experiment on pERK1/2 (0.5 μM per agent, seen at 2 hrs, time course 2-48 hours), the pERK1/2 levels result is on record as “reduction in pERK1/2 levels”. The “pERK1/2 expression by 24 hours” value in the experiment with pERK1/2 (0.5 μM, 24 hours) is recorded as “beginning to return”.
